Several values for one entry are separate records, joined by “and”; a condition that tells them apart may be missing. Equal values may be shown once. Inconclusive results and toxic doses are left out. The calls were made as follows: active = survival T/C of 150% or more; inactive = T/C below 125% in these data. Where a SMILES comes first, the peptide text is derived from it. The star is where a group is joined. Cbz = O=C(OCc1ccccc1)*
Test system: B6C3F1 mice, B16 melanoma ip, median survival T/C
Test: NCI In Vivo Anticancer Drug Screen. Data for tumor model B16 Melanoma (intraperitoneal) in B6C3F1 mice
Settings: endpoint: median survival time, schedule: Q01DX009 (ip), higher = longer survival
Method in brief: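 Readout: survival or tumor size in treated mice relative to vehicle controls (T/C). Model uses transplantable tumors grown in mice.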

[1] = dose: 50.0 mg/kg/injection, vehicle: Klucel (hydroxypropylcellulose) (HPC)
[2] = dose: 50.0 mg/kg/injection, vehicle: saline
[3] = dose: 100.0 mg/kg/injection, vehicle: saline
[4] = dose: 100.0 mg/kg/injection, vehicle: Klucel (hydroxypropylcellulose) (HPC)
[5] = dose: 200.0 mg/kg/injection, vehicle: Klucel (hydroxypropylcellulose) (HPC)
[6] = dose: 400.0 mg/kg/injection, vehicle: Klucel (hydroxypropylcellulose) (HPC)

Measured: T/C

Cc1c2ccccc2cc2cccc[n+]12
inactive: dose: 2.5 mg/kg/injection, vehicle: saline 106 % of control and 107 % of control | dose: 5.0 mg/kg/injection, vehicle: saline 101 % of control and 104 % of control | dose: 10.0 mg/kg/injection, vehicle: saline 102 % of control and 107 % of control | dose: 20.0 mg/kg/injection, vehicle: saline 99 % of control and 101 % of control

COC1/C=C\C=C(/C)C(=O)NC2=CC(=O)C(NCCCl)=C(CC(C)CC(OC)C(O)C(C)/C=C(/C)C1OC(N)=O)C2=O (stereo unspecified)
inactive: dose: 3.0 mg/kg/injection, vehicle: DMSO 109 % of control and 103 % of control | dose: 6.0 mg/kg/injection, vehicle: DMSO 112 % of control and 106 % of control | dose: 12.0 mg/kg/injection, vehicle: DMSO 112 % of control and 123 % of control | dose: 24.0 mg/kg/injection, vehicle: DMSO 109 % of control and 120 % of control

Cc1cc(Cc2cc(C)c(C)c(C)c2C)c(C)c(C)c1C
inactive: dose: 0.78 mg/kg/injection, vehicle: saline with Tween-80 89 % of control | dose: 1.56 mg/kg/injection, vehicle: saline with Tween-80 91 % of control | dose: 3.13 mg/kg/injection, vehicle: saline with Tween-80 100 % of control | dose: 6.25 mg/kg/injection, vehicle: saline with Tween-80 106 % of control

CCN(C)N=Nc1ccc(C(N)=O)cc1
inactive: dose: 6.25 mg/kg/injection, vehicle: Klucel (hydroxypropylcellulose) (HPC) 117 % of control and 95 % of control | dose: 12.5 mg/kg/injection, vehicle: Klucel (hydroxypropylcellulose) (HPC) 104 % of control and 106 % of control | dose: 25.0 mg/kg/injection, vehicle: Klucel (hydroxypropylcellulose) (HPC) 95 % of control and 101 % of control | [1] 110 % of control and 102 % of control

CCCOC(=O)c1nc(N(CC2CCCCC2)C(=O)NC)sc1/N=C/c1ccccc1
inactive: dose: 9.0 mg/kg/injection, vehicle: saline with Tween-80 96 % of control | dose: 18.0 mg/kg/injection, vehicle: saline with Tween-80 86 % of control | dose: 36.0 mg/kg/injection, vehicle: saline with Tween-80 86 % of control

O=C1CCC(=O)N1CO
inactive: [2] 121 % of control | [3] 117 % of control

O=C(NC(Cc1cnc[nH]1)C(=O)NC(Cc1ccc(O)cc1)C(=O)O)OCc1ccccc1 (stereo not drawn) (Cbz-His-Tyr-OH; configuration not given here)
inactive: [4] 102 % of control | [5] 103 % of control | [6] 110 % of control

CCC(=O)[O-].CCC(=O)[O-].CCC(=O)[O-].CCC(=O)[O-].O=S(=O)(O)O.[Re].[Re]
inactive: dose: 64.8 mg/kg/injection, vehicle: suspension in saline 93 % of control | dose: 108.0 mg/kg/injection, vehicle: suspension in saline 86 % of control | dose: 300.0 mg/kg/injection, vehicle: suspension in saline 86 % of control

C=C(c1ccc(OC)c(OC)c1)c1nccc2cc(OC)c(OC)cc12
inactive: [1] 103 % of control | [4] 98 % of control | [5] 87 % of control | [6] 97 % of control | dose: 800.0 mg/kg/injection, vehicle: Klucel (hydroxypropylcellulose) (HPC) 90 % of control

CC(N)C(=O)NC(CC(N)=O)C(=O)O (stereo unspecified)
inactive: [2] 103 % of control | [3] 94 % of control | dose: 200.0 mg/kg/injection, vehicle: saline 97 % of control

CC1=C(O)C(=O)[C@@H]2O[C@@H]2C1=O
inactive: dose: 0.78 mg/kg/injection, vehicle: saline 87 % of control and 92 % of control | dose: 1.56 mg/kg/injection, vehicle: saline 91 % of control and 98 % of control | dose: 3.12 mg/kg/injection, vehicle: saline 103 % of control | dose: 3.13 mg/kg/injection, vehicle: saline 107 % of control | dose: 6.25 mg/kg/injection, vehicle: saline 112 % of control and 94 % of control | dose: 12.5 mg/kg/injection, vehicle: saline 108 % of control and 106 % of control
